What was measured:
[1] = biological target: T1, Sodium-dependent dopamine transporter (Homo sapiens, UniProt Q01959); experiment: GPCRScan assay: inhibition of DAT; design: radioligand conc. used [nm] 3.6 – 16.0, parental cells stable HEK
[2] = biological target: T2, Bifunctional epoxide hydrolase 2 (Homo sapiens, UniProt P34913); experiment: Human soluble epoxide hydrolase inhibition
T2 sequence (P34913 whole entry): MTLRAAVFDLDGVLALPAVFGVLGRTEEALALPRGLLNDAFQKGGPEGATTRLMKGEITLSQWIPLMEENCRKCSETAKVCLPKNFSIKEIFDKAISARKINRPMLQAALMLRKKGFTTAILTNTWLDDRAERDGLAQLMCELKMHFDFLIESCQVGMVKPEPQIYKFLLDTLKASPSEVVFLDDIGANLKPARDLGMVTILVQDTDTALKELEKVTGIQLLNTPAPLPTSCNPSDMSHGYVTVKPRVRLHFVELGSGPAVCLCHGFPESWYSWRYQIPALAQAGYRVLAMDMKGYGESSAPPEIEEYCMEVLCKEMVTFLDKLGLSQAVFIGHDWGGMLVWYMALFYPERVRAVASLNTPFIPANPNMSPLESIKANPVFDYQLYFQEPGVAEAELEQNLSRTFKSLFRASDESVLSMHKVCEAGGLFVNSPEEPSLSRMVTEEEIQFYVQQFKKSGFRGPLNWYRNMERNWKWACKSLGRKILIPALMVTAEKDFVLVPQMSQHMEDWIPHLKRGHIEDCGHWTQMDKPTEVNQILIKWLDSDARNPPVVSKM

[3] = biological target: 5-hydroxytryptamine receptor 1A (Homo sapiens) (UniProt P08908); conditions: Compound concentration 10.0 uM
[4] = biological target: 5-hydroxytryptamine receptor 1B (Homo sapiens) (UniProt P28222); conditions: Compound concentration 10.0 uM
[5] = biological target: 5-hydroxytryptamine receptor 1D (Homo sapiens) (UniProt P28221); conditions: Compound concentration 10.0 uM
[6] = biological target: 5-hydroxytryptamine receptor 1E (Homo sapiens) (UniProt P28566); conditions: Compound concentration 10.0 uM
[7] = biological target: 5-hydroxytryptamine receptor 2A (Homo sapiens) (UniProt P28223); conditions: Compound concentration 10.0 uM
[8] = biological target: 5-hydroxytryptamine receptor 2B (Homo sapiens) (UniProt P41595); conditions: Compound concentration 10.0 uM
[9] = biological target: T3, 5-hydroxytryptamine receptor 3A (Homo sapiens) (UniProt P46098); conditions: Compound concentration 10.0 uM
T3 sequence (whole entry): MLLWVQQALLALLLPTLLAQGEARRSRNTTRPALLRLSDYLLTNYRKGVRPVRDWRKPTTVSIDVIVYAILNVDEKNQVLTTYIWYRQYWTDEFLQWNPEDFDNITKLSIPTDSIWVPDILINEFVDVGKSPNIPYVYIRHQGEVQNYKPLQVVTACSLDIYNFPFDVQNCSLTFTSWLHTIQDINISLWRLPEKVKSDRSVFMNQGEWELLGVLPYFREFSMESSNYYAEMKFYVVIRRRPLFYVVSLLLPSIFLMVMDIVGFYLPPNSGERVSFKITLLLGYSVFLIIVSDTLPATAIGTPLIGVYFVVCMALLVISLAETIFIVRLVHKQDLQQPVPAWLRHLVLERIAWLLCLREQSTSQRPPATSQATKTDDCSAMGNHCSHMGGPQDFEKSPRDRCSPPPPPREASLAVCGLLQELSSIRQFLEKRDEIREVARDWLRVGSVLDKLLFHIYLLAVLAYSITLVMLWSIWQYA

[10] = biological target: 5-hydroxytryptamine receptor 5A (Homo sapiens) (UniProt P47898); conditions: Compound concentration 10.0 uM
[11] = biological target: 5-hydroxytryptamine receptor 7 (Homo sapiens) (UniProt P34969); conditions: Compound concentration 10.0 uM
[12] = biological target: D(1A) dopamine receptor (Homo sapiens) (UniProt P21728); conditions: Compound concentration 10.0 uM
[13] = biological target: D(2) dopamine receptor (Homo sapiens) (UniProt P14416); conditions: Compound concentration 10.0 uM
[14] = biological target: D(3) dopamine receptor (Homo sapiens) (UniProt P35462); conditions: Compound concentration 10.0 uM
[15] = biological target: Sodium-dependent serotonin transporter (Homo sapiens) (UniProt P31645); conditions: Compound concentration 10.0 uM
[16] = biological target: Sodium-dependent noradrenaline transporter (Homo sapiens) (UniProt P23975); conditions: Compound concentration 10.0 uM
[17] = biological target: T1, Sodium-dependent dopamine transporter; conditions: Compound concentration 10.0 uM
[18] = biological target: Mu-type opioid receptor (Homo sapiens) (UniProt P35372); conditions: Compound concentration 10.0 uM
[19] = biological target: Delta-type opioid receptor (Homo sapiens) (UniProt P41143); conditions: Compound concentration 10.0 uM
[20] = biological target: Kappa-type opioid receptor (Homo sapiens) (UniProt P41145); conditions: Compound concentration 10.0 uM
[21] = biological target: GABA-A receptor; anion channel (Rattus norvegicus) (UniProt O09028+P15431+P18506+P18508+P19969+P20236+P23574+P23576+P28471+P28473+P30191+P62813+P63079+P63138+Q91ZM7+Q9ES14); conditions: Compound concentration 10.0 uM
[22] = biological target: Histamine H1 receptor (Homo sapiens) (UniProt P35367); conditions: Compound concentration 10.0 uM
[23] = biological target: Histamine H2 receptor (Homo sapiens) (UniProt P25021); conditions: Compound concentration 10.0 uM
[24] = biological target: Histamine H3 receptor (Homo sapiens) (UniProt Q9Y5N1); conditions: Compound concentration 10.0 uM
[25] = biological target: Histamine H4 receptor (Homo sapiens) (UniProt Q9H3N8); conditions: Compound concentration 10.0 uM
[26] = biological target: Alpha-1A adrenergic receptor (Homo sapiens) (UniProt P35348); conditions: Compound concentration 10.0 uM
[27] = biological target: Alpha-1B adrenergic receptor (Homo sapiens) (UniProt P35368); conditions: Compound concentration 10.0 uM
[28] = biological target: Alpha-2A adrenergic receptor (Homo sapiens) (UniProt P08913); conditions: Compound concentration 10.0 uM
[29] = biological target: Alpha-2B adrenergic receptor (Homo sapiens) (UniProt P18089); conditions: Compound concentration 10.0 uM
[30] = biological target: Alpha-2C adrenergic receptor (Homo sapiens) (UniProt P18825); conditions: Compound concentration 10.0 uM
[31] = biological target: Beta-1 adrenergic receptor (Homo sapiens) (UniProt P08588); conditions: Compound concentration 10.0 uM
[32] = biological target: Beta-2 adrenergic receptor (Homo sapiens) (UniProt P07550); conditions: Compound concentration 10.0 uM
[33] = biological target: Muscarinic acetylcholine receptor M1 (Homo sapiens) (UniProt P11229); conditions: Compound concentration 10.0 uM
[34] = biological target: Muscarinic acetylcholine receptor M2 (Homo sapiens) (UniProt P08172); conditions: Compound concentration 10.0 uM
[35] = biological target: Muscarinic acetylcholine receptor M3 (Homo sapiens) (UniProt P20309); conditions: Compound concentration 10.0 uM
[36] = biological target: Muscarinic acetylcholine receptor M4 (Homo sapiens) (UniProt P08173); conditions: Compound concentration 10.0 uM
[37] = biological target: Muscarinic acetylcholine receptor M5 (Homo sapiens) (UniProt P08912); conditions: Compound concentration 10.0 uM
[38] = biological target: Beta-3 adrenergic receptor (Homo sapiens) (UniProt P13945); conditions: Compound concentration 10.0 uM
[39] = organism: Rattus norvegicus; conditions: Compound concentration 10.0 uM
[40] = biological target: Alpha-1D adrenergic receptor (Homo sapiens) (UniProt P25100); conditions: Compound concentration 10.0 uM
[41] = biological target: Sigma intracellular receptor 2 (Homo sapiens) (UniProt Q5BJF2); conditions: Compound concentration 10.0 uM

T1 sequence (Q01959 whole entry): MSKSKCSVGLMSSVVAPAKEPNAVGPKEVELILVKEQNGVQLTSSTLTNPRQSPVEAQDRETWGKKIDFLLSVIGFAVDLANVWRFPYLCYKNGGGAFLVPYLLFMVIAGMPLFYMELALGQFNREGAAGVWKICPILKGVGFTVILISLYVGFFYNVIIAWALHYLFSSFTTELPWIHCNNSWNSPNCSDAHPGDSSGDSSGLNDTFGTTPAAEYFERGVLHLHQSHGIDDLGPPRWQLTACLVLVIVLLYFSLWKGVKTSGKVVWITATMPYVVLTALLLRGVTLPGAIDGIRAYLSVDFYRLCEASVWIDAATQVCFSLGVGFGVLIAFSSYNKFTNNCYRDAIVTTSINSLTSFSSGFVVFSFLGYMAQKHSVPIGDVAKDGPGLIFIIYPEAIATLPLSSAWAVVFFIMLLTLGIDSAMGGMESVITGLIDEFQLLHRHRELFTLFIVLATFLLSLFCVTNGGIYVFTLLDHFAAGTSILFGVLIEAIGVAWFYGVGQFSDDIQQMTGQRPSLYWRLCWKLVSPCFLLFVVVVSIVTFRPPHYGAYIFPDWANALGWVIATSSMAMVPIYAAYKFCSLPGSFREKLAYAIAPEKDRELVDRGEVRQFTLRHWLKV
Chain of Alpha-1A adrenergic receptor (Homo sapiens) (P35348 whole entry): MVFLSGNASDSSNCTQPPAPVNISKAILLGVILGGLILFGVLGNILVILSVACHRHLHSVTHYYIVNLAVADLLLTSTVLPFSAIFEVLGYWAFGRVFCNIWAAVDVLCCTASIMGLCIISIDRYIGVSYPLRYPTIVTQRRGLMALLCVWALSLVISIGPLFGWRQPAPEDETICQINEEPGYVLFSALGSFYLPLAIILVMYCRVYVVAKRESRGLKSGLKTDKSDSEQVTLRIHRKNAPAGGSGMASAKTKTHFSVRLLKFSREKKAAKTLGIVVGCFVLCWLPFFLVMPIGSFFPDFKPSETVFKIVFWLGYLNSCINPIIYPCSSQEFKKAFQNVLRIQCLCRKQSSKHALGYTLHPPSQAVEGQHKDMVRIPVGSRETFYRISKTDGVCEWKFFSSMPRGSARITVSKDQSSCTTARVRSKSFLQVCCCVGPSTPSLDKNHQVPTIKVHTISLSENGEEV
Chain of 5-hydroxytryptamine receptor 2B (Homo sapiens) (P41595 whole entry): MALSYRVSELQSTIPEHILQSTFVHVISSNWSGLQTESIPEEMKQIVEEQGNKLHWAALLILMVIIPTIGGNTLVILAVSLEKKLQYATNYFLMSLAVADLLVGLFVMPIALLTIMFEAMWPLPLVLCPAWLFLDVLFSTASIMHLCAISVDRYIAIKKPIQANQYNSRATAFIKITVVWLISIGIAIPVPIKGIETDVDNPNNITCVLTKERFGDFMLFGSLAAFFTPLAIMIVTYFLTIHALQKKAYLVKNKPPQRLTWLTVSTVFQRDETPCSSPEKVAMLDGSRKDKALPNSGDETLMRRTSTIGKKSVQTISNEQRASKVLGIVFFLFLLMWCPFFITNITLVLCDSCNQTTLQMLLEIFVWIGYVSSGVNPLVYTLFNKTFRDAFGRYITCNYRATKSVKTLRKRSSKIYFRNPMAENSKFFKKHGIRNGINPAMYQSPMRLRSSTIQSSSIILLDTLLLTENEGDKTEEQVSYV
Chain of Histamine H3 receptor (Homo sapiens) (Q9Y5N1 whole entry): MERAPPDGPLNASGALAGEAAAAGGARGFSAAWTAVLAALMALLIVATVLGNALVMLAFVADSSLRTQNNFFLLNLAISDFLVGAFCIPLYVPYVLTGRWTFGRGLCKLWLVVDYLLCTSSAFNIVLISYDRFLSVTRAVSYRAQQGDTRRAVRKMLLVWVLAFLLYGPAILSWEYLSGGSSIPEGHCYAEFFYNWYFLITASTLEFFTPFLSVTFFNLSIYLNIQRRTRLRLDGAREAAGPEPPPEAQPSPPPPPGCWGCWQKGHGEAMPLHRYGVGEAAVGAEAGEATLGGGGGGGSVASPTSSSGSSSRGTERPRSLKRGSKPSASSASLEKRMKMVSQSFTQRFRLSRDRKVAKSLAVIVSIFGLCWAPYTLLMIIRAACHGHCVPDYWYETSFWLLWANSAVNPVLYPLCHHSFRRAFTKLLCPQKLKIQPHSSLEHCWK
Chain of Alpha-1B adrenergic receptor (Homo sapiens) (P35368 whole entry): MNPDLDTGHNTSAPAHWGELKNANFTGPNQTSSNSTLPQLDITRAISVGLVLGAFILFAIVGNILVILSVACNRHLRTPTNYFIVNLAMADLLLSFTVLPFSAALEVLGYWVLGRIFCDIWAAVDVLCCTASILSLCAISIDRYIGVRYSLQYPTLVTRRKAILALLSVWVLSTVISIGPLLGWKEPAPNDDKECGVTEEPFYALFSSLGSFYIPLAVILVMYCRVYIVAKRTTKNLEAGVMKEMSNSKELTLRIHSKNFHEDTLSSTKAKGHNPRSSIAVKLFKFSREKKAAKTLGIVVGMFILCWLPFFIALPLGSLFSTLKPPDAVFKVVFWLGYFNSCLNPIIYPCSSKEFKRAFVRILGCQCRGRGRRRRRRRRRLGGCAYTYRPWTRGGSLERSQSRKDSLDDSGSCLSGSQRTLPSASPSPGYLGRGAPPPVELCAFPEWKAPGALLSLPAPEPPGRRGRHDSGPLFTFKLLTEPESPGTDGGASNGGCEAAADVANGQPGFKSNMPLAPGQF
Chain of Delta-type opioid receptor (Homo sapiens) (P41143 whole entry): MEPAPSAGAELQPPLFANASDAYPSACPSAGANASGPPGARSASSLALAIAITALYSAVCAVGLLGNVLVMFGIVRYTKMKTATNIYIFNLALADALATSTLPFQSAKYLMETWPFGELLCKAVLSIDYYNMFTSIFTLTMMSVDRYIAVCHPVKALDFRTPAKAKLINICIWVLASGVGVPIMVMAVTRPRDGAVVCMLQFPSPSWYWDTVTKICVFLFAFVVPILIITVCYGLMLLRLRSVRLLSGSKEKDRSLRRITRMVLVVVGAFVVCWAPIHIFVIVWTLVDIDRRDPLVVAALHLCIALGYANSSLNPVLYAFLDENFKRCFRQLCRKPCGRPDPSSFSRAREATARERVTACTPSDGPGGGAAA
Chain of Histamine H1 receptor (Homo sapiens) (P35367 whole entry): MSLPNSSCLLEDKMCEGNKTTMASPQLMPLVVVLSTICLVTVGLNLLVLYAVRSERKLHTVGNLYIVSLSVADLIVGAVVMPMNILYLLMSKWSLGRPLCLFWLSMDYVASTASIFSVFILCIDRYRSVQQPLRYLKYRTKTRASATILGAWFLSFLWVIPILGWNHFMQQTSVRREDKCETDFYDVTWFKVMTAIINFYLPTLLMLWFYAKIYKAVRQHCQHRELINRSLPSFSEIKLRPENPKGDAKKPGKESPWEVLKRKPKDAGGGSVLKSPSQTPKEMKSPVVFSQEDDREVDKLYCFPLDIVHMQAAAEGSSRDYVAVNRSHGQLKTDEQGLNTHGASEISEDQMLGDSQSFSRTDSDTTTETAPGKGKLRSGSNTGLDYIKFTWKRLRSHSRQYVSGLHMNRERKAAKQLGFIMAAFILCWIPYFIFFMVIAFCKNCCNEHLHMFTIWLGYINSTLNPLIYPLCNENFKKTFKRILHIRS
Chain of Sodium-dependent noradrenaline transporter (Homo sapiens) (P23975 whole entry): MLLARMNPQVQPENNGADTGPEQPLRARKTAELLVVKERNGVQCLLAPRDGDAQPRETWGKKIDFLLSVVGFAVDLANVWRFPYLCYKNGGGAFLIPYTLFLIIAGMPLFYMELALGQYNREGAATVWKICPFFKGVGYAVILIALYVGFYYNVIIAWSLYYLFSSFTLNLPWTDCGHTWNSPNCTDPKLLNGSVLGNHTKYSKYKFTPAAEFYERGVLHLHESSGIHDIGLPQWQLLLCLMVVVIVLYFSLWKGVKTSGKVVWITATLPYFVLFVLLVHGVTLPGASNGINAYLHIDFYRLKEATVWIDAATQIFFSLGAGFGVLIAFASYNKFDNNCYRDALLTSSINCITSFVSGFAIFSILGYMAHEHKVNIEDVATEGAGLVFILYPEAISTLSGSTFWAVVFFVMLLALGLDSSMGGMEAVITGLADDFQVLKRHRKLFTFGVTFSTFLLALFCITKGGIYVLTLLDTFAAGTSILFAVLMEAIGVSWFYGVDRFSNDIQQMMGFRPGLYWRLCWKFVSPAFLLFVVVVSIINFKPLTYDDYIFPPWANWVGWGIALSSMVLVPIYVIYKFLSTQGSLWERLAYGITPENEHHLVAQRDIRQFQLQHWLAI
Chain of 5-hydroxytryptamine receptor 1D (Homo sapiens) (P28221 whole entry): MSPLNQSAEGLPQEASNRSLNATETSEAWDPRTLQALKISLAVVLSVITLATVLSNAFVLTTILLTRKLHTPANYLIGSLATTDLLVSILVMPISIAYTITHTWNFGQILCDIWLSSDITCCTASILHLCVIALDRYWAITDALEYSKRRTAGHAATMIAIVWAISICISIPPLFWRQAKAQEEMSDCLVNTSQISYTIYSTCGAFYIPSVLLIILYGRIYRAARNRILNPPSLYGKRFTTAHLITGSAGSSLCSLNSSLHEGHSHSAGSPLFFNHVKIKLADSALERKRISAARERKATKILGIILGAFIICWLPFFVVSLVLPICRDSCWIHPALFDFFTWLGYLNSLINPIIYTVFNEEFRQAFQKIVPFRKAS
Chain of Alpha-2B adrenergic receptor (Homo sapiens) (P18089 whole entry): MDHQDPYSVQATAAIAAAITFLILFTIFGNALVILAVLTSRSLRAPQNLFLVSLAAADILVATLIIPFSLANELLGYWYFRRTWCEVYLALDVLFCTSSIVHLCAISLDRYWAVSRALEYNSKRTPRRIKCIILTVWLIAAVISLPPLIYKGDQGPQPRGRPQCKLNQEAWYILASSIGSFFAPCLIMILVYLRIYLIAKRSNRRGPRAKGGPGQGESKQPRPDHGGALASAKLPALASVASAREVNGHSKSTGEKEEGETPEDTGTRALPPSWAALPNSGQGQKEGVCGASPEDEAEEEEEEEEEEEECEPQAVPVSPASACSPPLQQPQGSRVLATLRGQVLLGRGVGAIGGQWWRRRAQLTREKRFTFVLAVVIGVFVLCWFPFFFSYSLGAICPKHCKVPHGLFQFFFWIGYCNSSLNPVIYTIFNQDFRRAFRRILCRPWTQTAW

O=C(Nc1ccc(-n2nc(-c3cccnc3)cc2C(F)(F)F)cn1)c1ccc(-c2ccccc2)c(F)c1 [BI 2049]
pKi [1]: < 5 | Ki ([1]; read-out: Ki): > 10 µM | IC50 [2]: > 3 µM (not active) | inhibition [3]: -3.06% | inhibition [4]: -0.85% | inhibition [5]: -9.83% | inhibition [6]: -4.45% | inhibition [7]: -1.62% | inhibition [8]: 9.91% | inhibition [9]: -8.89% | inhibition [10]: -2.92% | inhibition [11]: 6.21% | inhibition [12]: 4.32% | inhibition [13]: -9.24% | inhibition [14]: 8.38% | inhibition [15]: 9.16% | inhibition [16]: -9.35% | inhibition [17]: 68.2% | inhibition [18]: 7.17% | inhibition [19]: 3.77% | inhibition [20]: 13.8% | inhibition [21]: 16.1% | inhibition [22]: 3.07% | inhibition [23]: -5.62% | inhibition [24]: -1.54% | inhibition [25]: -9.32% | inhibition [26]: 1.9% | inhibition [27]: -3.49% | inhibition [28]: 8.3% | inhibition [29]: 1.26% | inhibition [30]: 6.33% | inhibition [31]: 0.23% | inhibition [32]: 5.14% | inhibition [33]: 25.5% | inhibition [34]: 9.94% | inhibition [35]: 3.71% | inhibition [36]: 0.8% | inhibition [37]: 0.37% | inhibition [38]: -0.78% | inhibition [39]: 15% | inhibition [40]: 18.3% | inhibition [41]: 30.1%

Reference: ChEMBL document CHEMBL4507283, “Data for DCP probe BI-1935” (2021)
